This is an account of results in PMC4850510 (ACS Central Science, 2016).

For one experiment, the target named is GABA AT (Rattus norvegicus, UniProt P50554). Put plainly: GABA transaminase. The class given is biochemical.
A further experiment has as its system CBS. Conditions: read-out: IC50 for CBS; cited from earlier work.

Sequence of GABA AT (P50554 28-500): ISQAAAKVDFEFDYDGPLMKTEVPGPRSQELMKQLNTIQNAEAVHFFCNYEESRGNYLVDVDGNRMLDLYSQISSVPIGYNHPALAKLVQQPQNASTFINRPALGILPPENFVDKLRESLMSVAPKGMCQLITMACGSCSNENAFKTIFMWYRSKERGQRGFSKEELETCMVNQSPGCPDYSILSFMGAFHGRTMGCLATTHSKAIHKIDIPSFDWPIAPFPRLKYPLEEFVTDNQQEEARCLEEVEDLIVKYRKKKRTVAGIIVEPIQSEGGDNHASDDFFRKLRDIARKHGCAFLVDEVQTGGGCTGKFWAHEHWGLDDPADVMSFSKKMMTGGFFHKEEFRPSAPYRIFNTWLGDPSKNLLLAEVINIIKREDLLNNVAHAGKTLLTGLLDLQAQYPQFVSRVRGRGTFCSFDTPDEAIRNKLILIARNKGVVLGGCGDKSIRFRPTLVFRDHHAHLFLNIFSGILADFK

As usually defined, the IC50 is the point on the concentration scale where inhibition reaches its midpoint. With `NOCC(=O)O` [AOAA, aminooxyacetic acid], at GABA AT (IC50 GABA AT vs IC50 CBS), the “fold better inhibitor of GABA AT than of CBS” value is 33 fold. Besides, the half-maximal inhibitory concentration (IC50) on GABA AT (read-out: IC50 for GABA AT, rat brain homogenate) was ~360 nM; in the experiment on CBS, ~12 µM.
